Results on 3 molecules are retold here after US8815535B2, “Disk diffusion assay for oritavancin” (The Medicines Company, priority 2011, dated 2014).

Like-named read-outs stand apart in the source and are kept apart here.

The subject of this assay is MSSA ATCC 25923. Kind of assay: Disk diffusion assay (zone of inhibition). The assay is classed as cell-based, Staphylococcus aureus. Conditions: for zone of inhibition at 30 µg/disc: Staphylococcus aureus, 30 μg in disk, without prediffusion, average of 2 disks; for Effect of addition of 5% P80 on zone diameter (average increase): MSSA ATCC 25923, disks containing 30 μg. From the text:
The study was designed to identify conditions that improve oritavancin diffusion in agar and consequently yield a zone diameter ≧15 mm for the CLSI quality control strain MSSA ATCC 25923. Excipients that increased the disk diffusion of oritavancin in agar relative to disks containing only oritavancin were identified and selected for further study. […] A prediffusion step at room temperature was introduced to maximize oritavancin diffusion prior to initiation of bacterial growth. In this step, the antimicrobial disks were placed on agar plates seeded with a bacterial isolate and incubated at room temperature for 3 hours. Plates were then incubated overnight at 37° C. Zone diameters around the disks in which bacterial growth was inhibited were measured with a ruler and reported in millimeters.
Ethanol-sterilized Whatman paper disks (6 mm diameter) were allowed to dry then impregnated with 20 microliters of oritavancin solution containing total amounts ranging from 90 to 360 micrograms. Disks were allowed to dry at room temperature for various times prior to use.
Bacterial suspensions were prepared and adjusted to an optical density of 0.1 at 600 nm. […] The plate was swabbed a second time, perpendicular to the orientation of the first swab. To assess the impact of prediffusion on diameter of inhibition zones, two disks were immediately placed on one half of the plate and the plate was incubated for 3 hours at room temperature. After 3 hours, two additional disks were placed on the other half of the plate then the plate was incubated overnight at 37° C. Zone diameters were measured with a ruler and reported in millimeters. […]
Oritavancin powder was dissolved in freshly-prepared solutions of the indicated excipients at concentrations of 0.625, 1.25, 2.5, 5, and 10 mg/ml (adjusted for potency based on lot 875561L00 purity of 83.1%) by vortexing for a minimum of 5 minutes. Oritavancin solutions in the various excipients, while not visually clear, were free from any apparent particulates as assessed visually. Sterile Oxoid blank disks were impregnated with 20 μl of these oritavancin solutions, resulting in oritavancin disk loads ranging from 12.5 to 200 μg. Unless indicated otherwise, disks were allowed to dry overnight at room temperature prior to use.
[…] Swabbing was continued at a right angle and then at an oblique angle to the first and second swabs. Disks were placed upon the seeded plates with sterile forceps. Plates were then incubated overnight at 37° C. and inhibition zone diameters were measured with a ruler and reported in millimeters.

Where [1] appears, read: read-out: Average zone diameter, S. aureus ATCC 25923, +5% P80.
The mark [2] stands for this setting: read-out: Average zone diameter, S. aureus ATCC 25923, Control (without P80).

Regarding `CCCCCCCCCCNCCN[C@@]1(C)C[C@H](O[C@H]2[C@H](Oc3c4cc5cc3Oc3ccc(cc3Cl)[C@@H](O)[C@@H](NC(=O)[C@@H](CC(C)C)NC)C(=O)N[C@@H](CC(N)=O)C(=O)N[C@H]5C(=O)N[C@H]3C(=O)N[C@H](C(=O)N[C@H](C(=O)O)c5cc(O)c(CNCP(=O)(O)O)c(O)c5-c5cc3ccc5O)[C@H](O)c3ccc(c(Cl)c3)O4)O[C@H](CO)[C@@H](O)[C@@H]2O)O[C@@H](C)[C@H]1O` [Telavancin], the zone of inhibition at 30 µg/disc came to 18 mm under setting [1] and 16.5 mm under setting [2].
As to `CN[C@H](CC(C)C)C(=O)N[C@H]1C(=O)N[C@@H](CC(N)=O)C(=O)N[C@H]2C(=O)N[C@H]3C(=O)N[C@H](C(=O)N[C@H](C(=O)O)c4cc(O)cc(O)c4-c4cc3ccc4O)[C@H](O)c3ccc(c(Cl)c3)Oc3cc2cc(c3O[C@@H]2O[C@H](CO)[C@@H](O)[C@H](O)[C@H]2O[C@H]2C[C@](C)(N)[C@H](O)[C@H](C)O2)Oc2ccc(cc2Cl)[C@H]1O` [Vancomycin], the “Effect of addition of 5% P80 on zone diameter (average increase)” value is “no effect”. Further, under setting [1], the zone of inhibition at 30 µg/disc worked out at 17.5 mm. Also, under setting [2], the zone of inhibition at 30 µg/disc came out at 17.5 mm.
Take `CCCCCCCCCC(=O)N[C@@H](Cc1c[nH]c2ccccc12)C(=O)N[C@H](CC(N)=O)C(=O)N[C@@H](CC(=O)O)C(=O)N[C@@H]1C(=O)NCC(=O)N[C@@H](CCCN)C(=O)N[C@@H](CC(=O)O)C(=O)N[C@H](C)C(=O)N[C@@H](CC(=O)O)C(=O)NCC(=O)N[C@H](CO)C(=O)N[C@@H]([C@H](C)CC(=O)O)C(=O)N[C@@H](CC(=O)c2ccccc2N)C(=O)O[C@@H]1C` [Daptomycin]: the “Effect of addition of 5% P80 on zone diameter (average increase)” value is listed as “no effect”. For the same molecule, the zone of inhibition at 30 µg/disc (S. aureus ATCC 25923, +5% P80, read-out: Average zone diameter) stood at 18 mm. Also, for the setting “S. aureus ATCC 25923, Control (without P80), read-out: Average zone diameter”, the zone of inhibition at 30 µg/disc amounted to 18.5 mm.
